Assay results taken from article PMC6269792, “Arylsulfonylamino-Benzanilides as Inhibitors of the Apical Sodium-Dependent Bile Salt Transporter (SLC10A2)” (Molecules, 2013).

Columns and labels:
ASBT = conditions: read-out: IC50 against ASBT; cited from earlier work
Human ASBT = target: T1, Human ASBT (Homo sapiens, UniProt Q12908); assay: ASBT inhibition assay: [3H]-taurocholic acid uptake in HEK293T cells transiently transfected with human ASBT; type: cell-based; conditions: for inhibition at 10 µM: HEK-293T; for IC50: inhibitor concentration that gives 50% taurocholate uptake compared to no inhibitor control
T1 construct: expressed in transfected cells; host or cells: HEK293T
T1 sequence (Q12908 1-348): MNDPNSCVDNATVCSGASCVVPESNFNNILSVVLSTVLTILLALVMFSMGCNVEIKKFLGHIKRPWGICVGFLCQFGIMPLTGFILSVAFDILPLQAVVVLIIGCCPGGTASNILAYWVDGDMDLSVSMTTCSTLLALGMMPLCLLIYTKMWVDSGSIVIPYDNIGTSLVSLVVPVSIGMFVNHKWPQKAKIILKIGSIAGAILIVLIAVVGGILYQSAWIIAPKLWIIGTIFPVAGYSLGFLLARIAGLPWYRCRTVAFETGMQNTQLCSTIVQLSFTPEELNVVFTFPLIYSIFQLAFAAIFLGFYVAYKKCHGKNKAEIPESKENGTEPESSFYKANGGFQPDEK
Method: In vitro inhibitory activity of all target compounds against ASBT was evaluated using a radioisotope-based assay. All the newly synthesized derivatives were initially tested at 10 μM concentration (Table 1).
HEK293T was obtained from the American Type Culture Collection (Manassas, VA, USA), and grown in MEM supplemented with 100 U/mL penicillin and […] streptomycin and 10% heat-inactivated fetal bovine serum. Human ASBT expression construct was prepared as previously described. HEK293T cells were seeded in 12 well plates and transiently transfected with 0.5 μg/well pcDNA3.1/ASBT or negative control plasmid pcDNA3.1 using lipofactamine 2000 (Invitrogen, Carlsbad, CA, USA) according to the manufacturer’s instructions. Twenty-four hours after transfection, HEK293T cells were assayed for taurocholic acid uptake as previously described with minor modifications. […] To terminate the transport process, the plates were chilled on ice and the cells were immediately washed with ice-cold buffer three times. Cells were lysed with 0.3 mL lysis buffer (0.5% triton x-100) and shaken vigorously for 20 min. The radioactivity of the cell lysate was counted using a MicroBeta^2 Liquid Scintillation and Luminescence Counter (PerkinElmer Life Sciences). Protein concentration of the lysate was used to normalize uptake activity.
The inhibition rate was calculated using the following formula: Inhibition Rate (%) = [(1 − (A − C)/(B − C)] × 100
A, [^3H] uptake value of test compound in [^3H]-TCA buffer added to pcDNA3.1/ASBT transfected cells; B, [^3H] uptake value of DMSO (without inhibitor) in [^3H]-TCA buffer added to pcDNA3.1/ASBT transfected cells; C, [^3H] uptake value of Blank sample (DMSO) in [^3H]-TCA buffer added to empty vector (pcDNA3.1) transfected cells.

inhibition at 10 µM (Human ASBT)	melting point	IC50 (Human ASBT)	SMILES	IC50 (ASBT)
–	–	–	O=C(Nc1ccc(Cl)c(Cl)c1)c1ccccc1NS(=O)(=O)c1cccc([N+](=O)[O-])c1 [Compound 5a1, N-(3,4-Dichlorophenyl)-2-(3-nitrophenylsulfonamido)benzamide]	4000 nM
20.1 ± 1.9%	160.3 to 161.4 °C	–	COc1cccc(S(=O)(=O)Nc2ccccc2C(=O)Nc2ccc(Cl)c(Cl)c2)c1 [Compound 5f5, N-(3,4-Dichlorophenyl)-2-(3-methoxyphenylsulfonamido)benzamide]	–
89.3 ± 3.3%	151.6 to 152.8 °C	910 ± 180 nM	O=C(Nc1ccc(Cl)cc1Cl)c1ccccc1NS(=O)(=O)c1cccc(OC(F)(F)F)c1 [Compound 5g1, N-(2,4-Dichlorophenyl)-2-(3-(trifluoromethoxy)phenylsulfonamido)benzamide]	–
98.6 ± 2.6%	157.3 to 158.6 °C	110 ± 50 nM	O=C(Nc1ccc(F)c(Cl)c1)c1ccccc1NS(=O)(=O)c1cccc(OC(F)(F)F)c1 [Compound 5g2, N-(3-Chloro-4-fluorophenyl)-2-(3-(trifluoromethoxy)phenylsulfonamido)benzamide]	–
91.8 ± 3.5%	179.4 to 180.5 °C	830 ± 110 nM	Cc1ccc(NC(=O)c2ccccc2NS(=O)(=O)c2cccc(OC(F)(F)F)c2)cc1C(F)(F)F [Compound 5g3, N-(4-Methyl-3-(trifluoromethyl)phenyl)-2-(3-(trifluoromethoxy)phenylsulfonamido)benzamide]	–
88.1 ± 2.7%	169.1 to 170.4 °C	1030 ± 160 nM	O=C(Nc1cccc(OC(F)(F)F)c1)c1ccccc1NS(=O)(=O)c1cccc(OC(F)(F)F)c1 [Compound 5g4, N-(3-(Trifluoromethoxy)phenyl)-2-(3-(trifluoromethoxy)phenylsulfonamido)benzamide]	–
